The values that follow come from US4666915A, “2-anilino-1,6-dihydro-6-oxo-5-pyrimidine-carboxylic acid derivatives, process for the preparation thereof, and antiallergic agent containing the same” (Morishita Pharmaceutical Co. Ltd., priority 1984, dated 1987).

Molecules are shown by their SMILES. Read-outs that look alike come from different tables or passages of the source.

Data set [1] in a line: Toxicity test in mice (LD50, Litchfield-Wilcoxon method). Particulars: mouse, in vivo, ip; mortality during 7 days; ddY male mice; read-out: 50% lethal dose (LD50). Here is the method: The test compound was suspended in 0.5% carboxymethylcellulose solution, and the suspension was intraperitoneally administered to ddY male mice (weighing 20-25 g, one group: 10 mice). Based on the total mortality during 7 days after the administration of the test compound, the 50% lethal dose (LD50) was calculated by Litchfield-Wilcoxon method. The data of reference (Tranilast) are also shown therein.

Assay in data set [2]: as above
To be noted: mouse, in vivo, po; mortality during 7 days; ddY male mice; read-out: 50% lethal dose (LD50).

The subject of data set [3] is passive cutaneous anaphylaxis (PCA). Description: PCA response in rats. It is filed as in vivo, Wistar male rats. To be noted: Rattus norvegicus, read-out: 50% inhibiting dose (ED50) in the rat PCA. The protocol:
[1] PCA response in rats:
Wistar male rats weighing 190-220 g were used. A diluted anti-dinitrophenyl-Ascalis (DNP-As) rat serum (each 0.1 ml) was intracutaneously injected into the back of the animals, by which the animals were passively sensitized. After 48 hours, Evans blue liquid (1.0 ml) containing DNP-As (20 mg, as a protein) was intravenously injected to the animals to induce PCA.
After 30 minutes, rats were killed, and the skin at the response region was peeled off, and the amount of color was measured spectrophotometrically. Test compounds were administered 30 minutes (in case of intraperitoneal injection) or one hour (in case of oral administration) before the challenge with the antigen.
The data of the references: disodium chromoglycate (SDCG) and Tranilast are also shown therein.

Another data set has as its system SRS-A. Description: Anti-SRS-A action, Magnus method using the isolated guinea pig ileum. To be noted: crude SRS-A after 3 minutes; for IC50: read-out: 50% inhibition concentration. The protocol: The anti-SRS-A activity of the compounds of the present invention was measured by Magnus method using the isolated guinea pig ileum. An extracted ileum of guinea pig was hung within a Magnus vessel which was maintained at 31±1° C. and then pre-treated with mepiramine to remove any effect by histamine. Test compound was administered in a dose of 3×10^-5 to 10^-3 M, and after 3 minutes, a previously prepared crude SRS-A was acted thereto, and then, the shrink rate (%) of the ileum was measured.

Setting [4] is: ip, 30 minutes before the challenge with the antigen.
Where [5] appears, read: po, 1 h, p.o., one hour before the challenge with the antigen.

For `CCCCOc1ccccc1Nc1ncc(C(=O)O)c(=O)[nH]1` [Example 51, 1,6-dihydro-2-(2-butoxyanilino)-6-oxo-5-pyrimidinecarboxylic acid], the LD50 at 168 h in data set [1] is 1230 mg/kg; in data set [2] it was > 3000 mg/kg. For the same molecule, the ED50 turned out to be 10.7 mg/kg in data set [3] (setting [4]) and 92 mg/kg in data set [3] (setting [5]).

`CC(C)COc1ccccc1Nc1ncc(C(=O)O)c(=O)[nH]1` [Example 52, 1,6-dihydro-2-[2-(2-methylpropoxy)anilino]-6-oxo-5-pyrimidinecarboxylic acid]: the LD50 at 168 h in data set [1] is 780 mg/kg; in data set [2], > 3000 mg/kg. The ED50 in data set [3] (setting [4]) amounted to 4.7 mg/kg; in data set [3] (setting [5]) it was 39 mg/kg. Further, the IC50 in the data set on SRS-A is 154 µM. For the same molecule, the Inhibition rate in the data set with SRS-A (test compd. 3 × 10^-4 M) was determined as 87.9%; in the data set on SRS-A (test compd. 3 × 10^-5 M), 12.2%; in the data set on SRS-A (test compd. 10^-4 M), 26.2%.

As for `COc1ccc(/C=C/C(=O)Nc2ccccc2C(=O)O)cc1OC` [Tranilast, reference compound], the LD50 at 168 h in data set [1] turned out to be 430 mg/kg; in data set [2], 780 mg/kg. The results for the ED50 in data set [3] (setting [4]) and in data set [3] (setting [5]) were 40 mg/kg and 110 mg/kg, respectively. For the same molecule, the IC50 in the data set with SRS-A was > 1000 µM. The Inhibition rate with SRS-A (test compd. 3 × 10^-4 M) stood at 32.4%; with SRS-A (test compd. 10^-3 M), 48.2%; in the data set on SRS-A (test compd. 10^-4 M), 23.5%.

On to `CC(C)Oc1ccccc1Nc1ncc(C(=O)O)c(=O)[nH]1` [Example 50, 1,6-dihydro-2-[b 2-(1-methylethoxy)anilino]-6-oxo-5-pyrimidinecarboxylic acid], for which the ED50 in data set [3] (setting [4]) amounted to 13 mg/kg; in data set [3] (setting [5]), 75 mg/kg.

As for `CCCOc1ccccc1Nc1ncc(C(=O)O)c(=O)[nH]1` [Example 49, 1,6-dihydro-2-(2-propoxyanilino)-6-oxo-5-pyrimidinecarboxylic acid], the LD50 at 168 h in data set [1] was 1160 mg/kg; in data set [2], > 3000 mg/kg. For the same molecule, the ED50 was 11 mg/kg in data set [3] (setting [4]) and 22.2 mg/kg in data set [3] (setting [5]). For the same molecule, the IC50 with SRS-A was found to be 487 µM. For the same molecule, the Inhibition rate in the data set on SRS-A (test compd. 3 × 10^-4 M) is reported as 17.9%; in the data set with SRS-A (test compd. 10^-3 M), 97.3%; with SRS-A (test compd. 10^-4 M) it was 8.1%.

Regarding `O=C(O)c1cc(=O)c2c(OCC(O)COc3cccc4oc(C(=O)O)cc(=O)c34)cccc2o1` [DSCG, disodium chromoglycate, reference compound], the ED50 in data set [3] (setting [4]) was 3.3 mg/kg; in data set [3] (setting [5]), > 200 mg/kg. The IC50 with SRS-A was > 1000 µM. The Inhibition rate with SRS-A (test compd. 10^-3 M) amounted to 6%.

Regarding `CCOc1ccccc1Nc1ncc(C(=O)O)c(=O)[nH]1` [Example 48, 1,6-dihydro-2-(2-ethoxyanilino)-6-oxo-5-pyrimidinecarboxylic acid], the LD50 at 168 h in data set [1] was > 500 mg/kg; in data set [2] it was > 3000 mg/kg. Also, the ED50 came out at 20.2 mg/kg in data set [3] (setting [4]) and 98 mg/kg in data set [3] (setting [5]).
